Assays:
[1] = test system: Human immunodeficiency virus 1; experiment: Antiviral activity against HIV1 HXB2 infected in HEK293T cells by luciferase reporter gene assay; type: functional, organism-based; settings: Human immunodeficiency virus 1, HXB2, HEK-293T
[2] = test system: Human immunodeficiency virus 1; experiment: Antiviral activity against HIV1 CNE3 infected in HEK293T cells by luciferase reporter gene assay; type: functional, organism-based; settings: Human immunodeficiency virus 1, CNE3, HEK-293T
[3] = test system: Human immunodeficiency virus 1; experiment: Antiviral activity against HIV1 JRFL infected in HEK293T cells by luciferase reporter gene assay; type: functional, organism-based; settings: Human immunodeficiency virus 1, JRFL, HEK-293T
[4] = test system: Human immunodeficiency virus 1; experiment: Antiviral activity against HIV1 SF162 infected in HEK293T cells by luciferase reporter gene assay; type: functional, cell-based; settings: Human immunodeficiency virus 1, SF162 ISOLATE, HEK-293T

| Compound | IC50 [1] | IC50 [2] | IC50 [3] | IC50 [4] |
| --- | --- | --- | --- | --- |
| CC[C@H](C)[C@H](NC(=O)[C@H](CCC(=O)O)NC(=O)[C@H](CCCNC(=N)N)NC(=O)[C@H](CC(=O)O)NC(=O)[C@H](Cc1c[nH]c2ccccc12)NC(=O)[C@H](CCC(=O)O)NC(=O)[C@H](CCSC)NC(=O)[C@H](Cc1c[nH]c2ccccc12)NC(C)=O)C(=O)N[C@@H](CC(N)=O)C(=O)N[C@@H](CC(N)=O)C(=O)N[C@@H](Cc1ccc(O)cc1)C(=O)N[C@H](C(=O)N[C@@H](CO)C(=O)N[C@@H](CC(C)C)C(=O)N[C@H](C(=O)N[C@@H](Cc1cnc[nH]1)C(=O)N[C@@H](CO)C(=O)N[C@@H](CC(C)C)C(=O)N[C@@H](CCCCN)C(=O)N[C@@H](CCC(=O)O)C(=O)N[C@@H](CCC(=O)O)C(=O)N[C@@H](CO)C(=O)N[C@@H](CCC(N)=O)C(=O)N[C@@H](CC(N)=O)C(=O)N[C@@H](CCC(N)=O)C(=O)N[C@@H](CCC(N)=O)C(=O)N[C@@H](CCC(=O)O)C(=O)N[C@@H](CCCCN)C(=O)N[C@@H](CC(N)=O)C(=O)N[C@@H](CCC(=O)O)C(=O)N[C@@H](CCC(N)=O)C(=O)N[C@@H](CCC(=O)O)C(=O)N[C@@H](CC(C)C)C(=O)N[C@@H](CC(C)C)C(N)=O)[C@@H](C)CC)[C@@H](C)O | 0.094 µM | 0.55 µM | 0.92 µM | 0.52 µM |
| CC[C@H](C)[C@H](NC(=O)[C@H](CCC(=O)O)NC(=O)[C@H](CCCNC(=N)N)NC(=O)[C@H](CC(=O)O)NC(=O)[C@H](Cc1c[nH]c2ccccc12)NC(=O)[C@H](CCC(=O)O)NC(=O)[C@H](CCSC)NC(=O)[C@H](Cc1c[nH]c2ccccc12)NC(C)=O)C(=O)N[C@@H](CC(N)=O)C(=O)N[C@@H](CC(N)=O)C(=O)N[C@@H](Cc1ccc(O)cc1)C(=O)N[C@H](C(=O)N[C@@H](CO)C(=O)N[C@@H](CC(C)C)C(=O)N[C@H](C(=O)N[C@@H](Cc1cnc[nH]1)C(=O)N[C@@H](CO)C(=O)N[C@@H](CC(C)C)C(=O)N[C@@H](CCC(=O)O)C(=O)N[C@@H](CCC(=O)O)C(=O)N[C@@H](CCC(=O)O)C(=O)N[C@@H](CO)C(=O)N[C@@H](CCC(N)=O)C(=O)N[C@@H](CC(N)=O)C(=O)N[C@@H](CCC(N)=O)C(=O)N[C@@H](CCC(N)=O)C(=O)N[C@@H](CCC(=O)O)C(=O)N[C@@H](CCCCN)C(=O)N[C@@H](CC(N)=O)C(=O)N[C@@H](CCC(=O)O)C(=O)N[C@@H](CCC(N)=O)C(=O)N[C@@H](CCC(=O)O)C(=O)N[C@@H](CC(C)C)C(=O)N[C@@H](CC(C)C)C(N)=O)[C@@H](C)CC)[C@@H](C)O | 1.31 µM | 0.47 µM | 1.19 µM | 1.43 µM |

From ChEMBL document CHEMBL2380233, “Addition of artificial salt bridge by Ile646Lys mutation in gp41 coiled-coil domain regulates 6-helical bundle formation” (Bioorg Med Chem Lett, 2013)
